Results on one molecule are retold here after patent publication US12279616B2, “Stabilization of dimpropyridaz suspensions by triethylammonium chloride” (BASF SE, priority 2019, dated 2025).

The nature of this data set: Water-solubility of dimpropyridaz. Format: physicochemical. The note with it: printed as at 20° C. ... at 25° C. On the procedure:
Dimpropyridaz is a pesticide that has a water-solubility at 20° C. of approximately 4-5 wt % at 25° C. The water-solubility of dimpropyridaz is comparably high and so Ostwald-ripening represents a crucial issue for Dimpropyridaz suspension concentrates.

In the case of `CCN(C(=O)c1cnn(C(C)C(C)C)c1C)c1ccnnc1` (racemic) [Dimpropyridaz, 1-[1,2-dimethylpropyl]-N-ethyl-5-methyl-N-pyridazin-4-yl-1H-pyrazole-4-carboxamide], the water-solubility was 4-5 wt %.
